Results published in patent US10323038B2, “Pyrazole compounds and methods of making and using same” (ABIDE THERAPEUTICS, INC., priority 2015, dated 2019).

What was measured:
MAGL [1] = molecular target: T1, MAGL (Mus musculus (Mouse), UniProt O35678); experiment: Mouse brain proteomes from inhibitor treated mice (oral gavage, 4 h), MAGL; assay type: in vivo; conditions: read-out: MAGL % inh. 5 mg/kg (mouse)
Method: Preparation of Mouse Brain Proteomes from Inhibitor Treated Mice.
Inhibitors were administered to wild-type C57Bl/6J by oral gavage in a vehicle of polyethylene glycol. Each animal was sacrificed 4 h following administration and brain proteomes were prepared and analyzed according to previously established methods (See Niphakis, M. J., et al. (2011) ACS Chem. Neurosci. and Long, J. Z., et al. Nat. Chem. Biol. 5:37-44).

MAGL [2] = molecular target: T1, MAGL; experiment: In vitro competitive activity-based protein profiling, MAGL (mouse); assay type: biochemical; conditions: for inhibition at 1 µM: read-out: MAGL % inh. 1 μM (mouse)
In short: (§1)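 Competitive ABPP; proteome 1.0 mg/mL total protein; mouse = brain membranes or cell lysates, human = prefrontal cortex or cell membranes. Inhibitor preinc 30 min, 37° C; FP-Rh/HT-01 (50 μM DMSO stock) 30 min, 37° C; SDS-PAGE, in-gel fluorescence of MAGL/FAAH bands.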

FAAH [3] = molecular target: FAAH (Mus musculus (Mouse), UniProt O08914); experiment: In vitro competitive activity-based protein profiling, FAAH (mouse); assay type: biochemical; conditions: for inhibition at 1 µM: read-out: FAAH % inh. 1 μM (mouse)
Sequence of FAAH (Mus musculus (Mouse), UniProt O08914) (O08914 whole entry): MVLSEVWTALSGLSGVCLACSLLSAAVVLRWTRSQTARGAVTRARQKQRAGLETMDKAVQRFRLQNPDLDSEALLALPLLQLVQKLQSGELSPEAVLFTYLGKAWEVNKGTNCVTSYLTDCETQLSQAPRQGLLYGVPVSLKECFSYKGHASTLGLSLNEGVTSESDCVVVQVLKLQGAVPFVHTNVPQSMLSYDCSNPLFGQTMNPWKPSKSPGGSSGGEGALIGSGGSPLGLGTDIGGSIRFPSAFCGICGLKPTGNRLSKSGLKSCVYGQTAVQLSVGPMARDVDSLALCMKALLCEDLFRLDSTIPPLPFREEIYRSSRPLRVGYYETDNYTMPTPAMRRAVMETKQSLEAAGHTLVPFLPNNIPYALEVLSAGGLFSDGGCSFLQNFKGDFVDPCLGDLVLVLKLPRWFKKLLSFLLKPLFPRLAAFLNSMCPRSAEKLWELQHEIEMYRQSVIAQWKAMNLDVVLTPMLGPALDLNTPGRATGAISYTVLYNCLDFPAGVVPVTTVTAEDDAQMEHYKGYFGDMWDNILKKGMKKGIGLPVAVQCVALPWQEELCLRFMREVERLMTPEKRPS
In short: as §1

MAGL [4] = molecular target: MAGL (Homo sapiens (Human), UniProt Q99685); experiment: In vitro competitive activity-based protein profiling, MAGL (human); assay type: biochemical; conditions: 10 μM, human proteome; read-out: MAGL % inh. 10 μM (human)
Sequence of MAGL (Homo sapiens (Human), UniProt Q99685) (Q99685 whole entry): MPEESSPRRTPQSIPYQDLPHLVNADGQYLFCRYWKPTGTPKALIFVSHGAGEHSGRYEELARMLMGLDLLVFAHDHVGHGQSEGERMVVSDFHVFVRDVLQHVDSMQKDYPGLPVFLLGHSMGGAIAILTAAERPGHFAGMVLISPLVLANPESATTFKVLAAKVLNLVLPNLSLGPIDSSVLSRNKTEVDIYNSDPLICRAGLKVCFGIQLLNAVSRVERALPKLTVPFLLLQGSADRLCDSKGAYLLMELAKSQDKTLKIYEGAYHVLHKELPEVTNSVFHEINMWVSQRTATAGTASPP
Method: (§2) In Vitro Competitive Activity-Based Protein Profiling.
(§3) Proteomes (mouse brain membrane fraction or cell lysates for mouse assays; human prefrontal cortex or cell membrane fractions for human assays) (50 μL, 1.0 mg/mL total protein concentration) were preincubated with varying concentrations of inhibitors at 37° C. After 30 min, FP—Rh or HT-01 (1.0 μL, 50 μM in DMSO) was added and the mixture was incubated for another 30 min at 37° C. Reactions were quenched with SDS loading buffer (15 μL-4×) and run on SDS-PAGE. Following gel imaging, serine hydrolase activity was determined by measuring fluorescent intensity of gel bands corresponding to MAGL and FAAH using ImageJ 1.43u software.

FAAH [5] = molecular target: FAAH (Homo sapiens (Human), UniProt O00519); experiment: In vitro competitive activity-based protein profiling, FAAH (human); assay type: biochemical; conditions: 10 μM, human proteome; read-out: FAAH % inh. 10 μM (human)
Sequence of FAAH (Homo sapiens (Human), UniProt O00519) (O00519 whole entry): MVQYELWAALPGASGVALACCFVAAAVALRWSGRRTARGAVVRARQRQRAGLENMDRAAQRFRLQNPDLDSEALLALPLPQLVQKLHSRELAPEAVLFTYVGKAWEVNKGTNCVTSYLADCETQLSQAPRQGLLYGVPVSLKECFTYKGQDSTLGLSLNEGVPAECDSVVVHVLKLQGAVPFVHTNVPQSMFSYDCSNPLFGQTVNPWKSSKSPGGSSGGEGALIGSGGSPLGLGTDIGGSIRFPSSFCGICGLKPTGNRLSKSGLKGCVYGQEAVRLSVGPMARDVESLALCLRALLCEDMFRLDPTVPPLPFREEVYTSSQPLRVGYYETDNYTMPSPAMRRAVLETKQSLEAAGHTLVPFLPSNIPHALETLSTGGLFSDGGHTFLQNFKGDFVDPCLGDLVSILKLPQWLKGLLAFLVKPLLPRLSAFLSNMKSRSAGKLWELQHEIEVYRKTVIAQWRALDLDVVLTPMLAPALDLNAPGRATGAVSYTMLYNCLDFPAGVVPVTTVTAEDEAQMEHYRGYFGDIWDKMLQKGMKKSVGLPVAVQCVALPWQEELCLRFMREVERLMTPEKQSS
Method: as §2, §3

T1 sequence (O35678 whole entry): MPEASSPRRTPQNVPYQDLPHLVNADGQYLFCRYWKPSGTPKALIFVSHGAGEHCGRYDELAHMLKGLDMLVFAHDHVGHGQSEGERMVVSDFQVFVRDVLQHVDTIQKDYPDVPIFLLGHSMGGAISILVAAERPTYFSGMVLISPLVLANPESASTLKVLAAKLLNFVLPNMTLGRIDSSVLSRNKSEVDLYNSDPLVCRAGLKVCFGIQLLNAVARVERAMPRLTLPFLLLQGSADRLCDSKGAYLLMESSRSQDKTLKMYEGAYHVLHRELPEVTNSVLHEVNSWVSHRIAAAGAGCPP

Compound	inhibition at 5 mg/kg (MAGL [1]) [%]	IC50 (MAGL [2]) [nM]	inhibition at 1 µM (MAGL [2]) [%]	IC50 (FAAH [3]) [nM]	inhibition at 1 µM (FAAH [3]) [%]	inhibition at 10 µM (MAGL [4]) [%]	inhibition at 10 µM (FAAH [5]) [%]
CC(=O)N(C)c1cnn(C(=O)N2CC3CN(Cc4ccccc4Cl)CC3C2)c1 (stereo not drawn) [Example 9, N-(1-(5-(2-chlorobenzyl)octahydropyrrolo[3,4-c]pyrrole-2-carbonyl)-1H-pyrazol-4-yl)-N-methylacetamide]	50 to 75	100 to 1000	≥ 75	≤ 100	≥ 75	–	–
CC(=O)N(C)c1cnn(C(=O)N2CC3CN(Cc4ccc(Cl)cc4)CC3C2)c1 (stereo not drawn) [Example 11, N-(1-(5-(4-chlorobenzyl)octahydropyrrolo[3,4-c]pyrrole-2-carbonyl)-1H-pyrazol-4-yl)-N-methylacetamide]	≥ 75	100 to 1000	≥ 75	≤ 100	≥ 75	–	–
CC(=O)N(C)c1cnn(C(=O)N2CC3CN(Cc4ccc(N5CCOCC5)cc4)CC3C2)c1 (stereo not drawn) [Example 15, N-methyl-N-(1-(5-(4-morpholinobenzyl)octahydropyrrolo[3,4-c]pyrrole-2-carbonyl)-1H-pyrazol-4-yl)acetamide]	–	–	0 to 25	–	25 to 50	≥ 75	≥ 75
CC(=O)N(C)c1cnn(C(=O)N2CC3(CCN(Cc4ccc(N5CCOCC5)cc4)CC3)C2)c1 [Example 21, N-methyl-N-(1-(7-(4-morpholinobenzyl)-2,7-diazaspiro[3.5]nonane-2-carbonyl)-1H-pyrazol-4-yl)acetamide]	–	–	0 to 25	–	25 to 50	0 to 25	≥ 75
CC(=O)N(C)c1cnn(C(=O)N2CCC3(CCN(Cc4cccc(N5CCOCC5)c4)C3)C2)c1 (stereo not drawn) [Example 48, N-methyl-N-(1-(7-(3-morpholinobenzyl)-2,7-diazaspiro[4.4]nonane-2-carbonyl)-1H-pyrazol-4-yl)acetamide]	–	–	0 to 25	–	25 to 50	≥ 75	≥ 75
CC(=O)N(C)c1cnn(C(=O)N2CCC3(CCN(Cc4ccccc4F)C3)C2)c1 (stereo not drawn) [Example 52, N-(1-(7-(2-fluorobenzyl)-2,7-diazaspiro[4.4]nonane-2-carbonyl)-1H-pyrazol-4-yl)-N-methylacetamide]	–	–	0 to 25	–	≥ 75	≥ 75	≥ 75
CC(=O)N(C)c1cnn(C(=O)N2CCC3(CCN(Cc4ccccc4C)C3)C2)c1 (stereo not drawn) [Example 54, N-methyl-N-(1-(7-(2-methylbenzyl)-2,7-diazaspiro[4.4]nonane-2-carbonyl)-1H-pyrazol-4-yl)acetamide]	–	–	0 to 25	–	≥ 75	≥ 75	≥ 75
COc1ccccc1CN1CCC2(CCN(C(=O)n3cc(N(C)C(C)=O)cn3)C2)C1 (stereo not drawn) [Example 56, N-(1-(7-(2-methoxybenzyl)-2,7-diazaspiro[4.4]nonane-2-carbonyl)-1H-pyrazol-4-yl)-N-methylacetamide]	–	–	0 to 25	–	0 to 25	≥ 75	≥ 75
CC(=O)N(C)c1cnn(C(=O)N2CCC3(CCN(Cc4ccccc4N4CCCC4)C3)C2)c1 (stereo not drawn) [Example 60, N-methyl-N-(1-(7-(2-(pyrrolidin-1-yl)benzyl)-2,7-diazaspiro[4.4]nonane-2-carbonyl)-1H-pyrazol-4-yl)acetamide]	–	–	0 to 25	–	0 to 25	≥ 75	≥ 75
CC(=O)N(C)c1cnn(C(=O)N2CCC3(CCN(Cc4ccccc4N4CCOCC4)C3)C2)c1 (stereo not drawn) [Example 62, N-methyl-N-(1-(7-(2-morpholinobenzyl)-2,7-diazaspiro[4.4]nonane-2-carbonyl)-1H-pyrazol-4-yl)acetamide]	–	–	0 to 25	–	0 to 25	25 to 50	≥ 75
CC(=O)N(C)c1cnn(C(=O)N2CCC3(CCN(Cc4ccc(F)cc4)C3)C2)c1 (stereo not drawn) [Example 75, N-(1-(7-(4-fluorobenzyl)-2,7-diazaspiro[4.4]nonane-2-carbonyl)-1H-pyrazol-4-yl)-N-methylacetamide]	–	–	0 to 25	–	50 to 75	≥ 75	≥ 75
CC(=O)N(C)c1cnn(C(=O)N2CCC3(CCN(Cc4ccc(C)cc4)C3)C2)c1 (stereo not drawn) [Example 76, N-methyl-N-(1-(7-(4-methylbenzyl)-2,7-diazaspiro[4.4]nonane-2-carbonyl)-1H-pyrazol-4-yl)acetamide]	–	–	0 to 25	–	50 to 75	≥ 75	≥ 75
COc1ccc(CN2CCC3(CCN(C(=O)n4cc(N(C)C(C)=O)cn4)C3)C2)cc1 (stereo not drawn) [Example 77, N-(1-(7-(4-methoxybenzyl)-2,7-diazaspiro[4.4]nonane-2-carbonyl)-1H-pyrazol-4-yl)-N-methylacetamide]	–	–	0 to 25	–	25 to 50	≥ 75	≥ 75
CC(=O)N(C)c1cnn(C(=O)N2CCC3(CCN(Cc4cccc(F)c4)C3)C2)c1 (stereo not drawn) [Example 79, N-(1-(7-(3-fluorobenzyl)-2,7-diazaspiro[4.4]nonane-2-carbonyl)-1H-pyrazol-4-yl)-N-methylacetamide]	–	–	0 to 25	–	≥ 75	≥ 75	≥ 75
CC(=O)N(C)c1cnn(C(=O)N2CCC3(CCN(Cc4cccc(C)c4)C3)C2)c1 (stereo not drawn) [Example 80, N-methyl-N-(1-(7-(3-methylbenzyl)-2,7-diazaspiro[4.4]nonane-2-carbonyl)-1H-pyrazol-4-yl)acetamide]	–	–	0 to 25	–	50 to 75	≥ 75	≥ 75
COc1cccc(CN2CCC3(CCN(C(=O)n4cc(N(C)C(C)=O)cn4)C3)C2)c1 (stereo not drawn) [Example 81, N-(1-(7-(3-methoxybenzyl)-2,7-diazaspiro[4.4]nonane-2-carbonyl)-1H-pyrazol-4-yl)-N-methylacetamide]	–	–	0 to 25	–	50 to 75	≥ 75	≥ 75
CC(=O)N(C)c1cnn(C(=O)N2CC3(CCN(Cc4ccccc4C(F)(F)F)CC3)C2)c1 [Example 90, N-methyl-N-(1-(7-(2-(trifluoromethyl)benzyl)-2,7-diazaspiro[3.5]nonane-2-carbonyl)-1H-pyrazol-4-yl)acetamide]	–	–	0 to 25	–	≥ 75	25 to 50	≥ 75
CC(=O)N(C)c1cnn(C(=O)N2C[C@H]3C[C@@H](NCc4cccc(Cl)c4)C[C@H]3C2)c1 [Example 134, N-(1-(cis-5-(3-chlorobenzylamino)octahydrocyclopenta[c]pyrrole-2-carbonyl)-1H-pyrazol-4-yl)-N-methylacetamide]	–	–	0 to 25	–	≥ 75	≥ 75	≥ 75
COc1ccccc1CN1CC2CN(C(=O)n3cc(N(C)C(C)=O)cn3)CC2C1 (stereo not drawn) [Example 183, N-(1-(5-(2-methoxybenzyl)octahydropyrrolo[3,4-c]pyrrole-2-carbonyl)-1H-pyrazol-4-yl)-N-methylacetamide]	–	–	0 to 25	–	≥ 75	≥ 75	≥ 75
CC(=O)N(C)c1cnn(C(=O)N2CC3(CCN(Cc4ccc(-c5ccccc5)cc4C)CC3)C2)c1 [Example 222, N-methyl-N-(1-(7-((3-methyl-[1,1′-biphenyl]-4-yl)methyl)-2,7-diazaspiro[3.5]nonane-2-carbonyl)-1H-pyrazol-4-yl)acetamide]	–	–	0 to 25	–	≥ 75	≥ 75	50 to 75
CC(=O)N(C)c1cnn(C(=O)N2CC3CN(Cc4ccc(CN5CCOCC5)cc4)CC3C2)c1 (stereo not drawn) [Example 225, N-methyl-N-(1-(5-(4-(morpholinomethyl)benzyl)octahydropyrrolo[3,4-c]pyrrole-2-carbonyl)-1H-pyrazol-4-yl)acetamide]	–	–	0 to 25	–	25 to 50	≥ 75	≥ 75
CC(=O)N(C)c1cnn(C(=O)N2CCC3(CCN(Cc4ccc(CN5CCOCC5)cc4)C3)C2)c1 (stereo not drawn) [Example 231, N-methyl-N-(1-(7-(4-(morpholinomethyl)benzyl)-2,7-diazaspiro[4.4]nonane-2-carbonyl)-1H-pyrazol-4-yl)acetamide]	–	–	0 to 25	–	0 to 25	≥ 75	25 to 50
